According to BindingDB's records for doi:10.1074/jbc.M113.533885 (University of Texas Southwestern Medical Center, 2014):

Legend:
[1] = target: T1, [Pyruvate dehydrogenase (acetyl-transferring)] kinase isozyme 2, mitochondrial (Homo sapiens, UniProt Q15119); assay: PDK Inhibition Assay; settings: pH 7.5; 25 °C
[2] = target: [Pyruvate dehydrogenase (acetyl-transferring)] kinase isozyme 4, mitochondrial (Homo sapiens, UniProt Q16654); assay: PDK Inhibition Assay; settings: pH 7.5; 25 °C
[3] = target: T2, Heat shock protein HSP 90-alpha [1-236] (Homo sapiens, UniProt P07900); assay: Isothermal Titration Calorimetry (ITC); settings: pH 7.5; 15 °C
T2 construct: 1-236
Method: (§1) The PDK2 or Hsp90 N-terminal domain protein was dialyzed against 1 liter of thedialysis buffer containing 50 mM Tris-Cl, pH 7.5, 50 mM KCl, 1 mM MgCl2, and 0.5 mM β-mercaptoethanol.

[4] = target: T1, [Pyruvate dehydrogenase (acetyl-transferring)] kinase isozyme 2, mitochondrial; assay: Isothermal Titration Calorimetry (ITC); settings: pH 7.5; 15 °C
Method: as §1

Chain of [Pyruvate dehydrogenase (acetyl-transferring)] kinase isozyme 4, mitochondrial (Q16654 whole entry): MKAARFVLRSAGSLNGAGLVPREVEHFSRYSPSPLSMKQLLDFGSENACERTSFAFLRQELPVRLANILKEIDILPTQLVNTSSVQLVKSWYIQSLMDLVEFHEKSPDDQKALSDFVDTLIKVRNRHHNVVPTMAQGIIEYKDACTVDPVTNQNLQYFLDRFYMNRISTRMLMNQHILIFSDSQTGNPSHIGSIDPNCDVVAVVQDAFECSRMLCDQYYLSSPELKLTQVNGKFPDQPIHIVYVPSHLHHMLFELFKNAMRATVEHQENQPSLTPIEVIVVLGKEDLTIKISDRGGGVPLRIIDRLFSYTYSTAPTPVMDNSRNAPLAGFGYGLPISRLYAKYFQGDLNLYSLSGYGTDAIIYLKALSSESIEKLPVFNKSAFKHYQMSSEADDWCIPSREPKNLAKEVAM

SMILES | IC50 [1] | IC50 [2] | Kd [3] | Kd [4]
O=C(O)C(Cl)Cl [DCA] | 183 µM | 80 µM | – | –
Oc1ccc(-c2nnc(S)n2-c2cccc3ccccc23)c(O)c1 [Resorcinol analog, 1] | 3.82 µM | 0.28 µM | 0.025 µM | 6.76 µM
